Measurements taken from patent US20180235931A1, “USE OF NEUROKININ-1 ANTAGONISTS AS ANTITUSSIVES” (Menlo Therapeutics Inc., priority 2017, published 2018).

Tests used:
[1] = cited from earlier work
[2] = In vitro skin permeation, Franz diffusion cell; type: in vitro ADME; details: topical formulations B and C on human skin, 37 C, LC-MS/MS
Procedure: In vitro skin permeation of serlopitant in topical formulations A-D was evaluated using a Franz diffusion cell. FIG. 1 illustrates a Franz diffusion cell. A Franz diffusion cell having a circular permeation area of 4.15 cm^2 and a receptor chamber volume of 19 mL was set up with a thermo-regulated outer water jacket to maintain the temperature at 37° C. The receptor chamber was filled with 19 mL 1×PBS (pH 7.5) containing 10% ethanol and 1% Tween® 80.
Human skin was pre-treated to remove all subcutaneous fat and was cleaned with 70% ethanol before use. The skin was visually inspected to ensure that it was free of any surface irregularity or small holes and was equally divided into four pieces. The skin was then mounted onto the receptor chamber with the stratum corneum side facing up. About 100 mg of topical formulation A, B, C or D was applied to the skin (actual weight: A, 103.8 mg; B, 101.3 mg; C, 103.2 mg; and D, 103.8 mg), which was then covered with parafilm to avoid evaporation. […]
All samples were processed by solid-phase extraction (SPE) before LC-MS/MS analysis. […] Serlopitant concentrations in samples resulting from formulations A-D were determined by comparison to the standard. Serlopitant was not detected in samples resulting from topical formulations A and D, as expected. […] After an initial lag, serlopitant was detected by LC-MS/MS in the receptor chamber at 6 hours.

[3] = Solubility test of serlopitant in Franz cell receptor solution; type: physicochemical

SMILES | hygroscopicity ([1]; all tested relative humidity conditions) | thermodynamic stability ([1]; below 70 C, Form I vs Form II) | time at which serlopitant was detected in the receptor chamber after initial lag [2] [h] | solubility in receptor solution ([3]; 0.5, 5 and 50 ug/mL in 1xPBS (pH 7.5) containing 10% ethanol and 1% Tween 80, 1 hour at 37 C) | solubility if Tween 80 was not used ([3]; receptor solution without Tween 80) | solubility if ethanol was not used ([3]; receptor solution without ethanol)
C[C@@H](O[C@H]1CC[C@@H]2CN(C3=CC(=O)CC3)C[C@H]2[C@@H]1c1ccc(F)cc1)c1cc(C(F)(F)F)cc(C(F)(F)F)c1 [Form I] | non-hygroscopic | thermodynamically more stable | – | – | – | –
CC(O[C@H]1CC[C@@H]2CN(C3=CC(=O)CC3)C[C@H]2[C@@H]1c1ccc(F)cc1)c1cc(C(F)(F)F)cc(C(F)(F)F)c1 (stereo partly drawn) [serlopitant] | – | – | 6 | remained soluble | decreased significantly | decreased slightly
